# In US20170008888A1 (KYORIN PHARMACEUTICAL CO., LTD., priority 2014, published 2017):
# Marks after values point to notes of the source that are not given here.
# Experiments:
# [1] = test system: DNFB-induced ear inflammation mouse model; test: DNFB-induced ear inflammation (contact hypersensitivity) mouse model: ear weight; type: in vivo, mouse (Balb/c)
# Description: In vivo T-cell mediated immune response was examined in a mouse model of CHS using the hapten dinitrofluorobenzene (DNFB) as the induction agent. Method for sensitization and elicitation of DNFB-induced CHS was modified from Xu et al. J. Exp. Med. 1996. 183:1001-1012. On Days 0 and 1 (sensitization), 20 μL of 0.5% v/v DNFB in acetone:olive oil (4:1) was applied to each hindpaw of 8 week old male mice (Balb/c, Charles River Laboratories; 10 mice per group unless otherwise noted). On Day 5 (elicitation) 10 μL of 0.2% v/v DNFB in acetone: olive oil (4:1) was applied to the dorsal surface of the right ear of each animal; 10 μL of acetone: olive oil (4:1) was applied to the dorsal surface of the left ear as control. Treatments were administered by group as indicated in the table below; on days when DNFB was used, the QD and the morning dose of BID as appropriate were administered 30 minutes-1 hr. prior to DNFB application. […] Approximately 24 hours after elicitation (Day 6), a 7 mm tissue punch from the central portion of both ears was collected and wet weights measured. The primary functional assessment was the difference in wet weights of the right (DNFB) vs. left (vehicle) ears compared to the vehicle treatment (Vehicle1-S) as an indicator of inflammation (Table 17). Ear tissue punches were flash frozen, stored at −70° C. and analyzed for cytokines (see below). Body weights of the mice were measured at baseline and at end of study, and there were no significant changes in weight in any treatment group during the study (data not shown).
# [2] = test system: Imiquimod-induced psoriasis mouse model; test: Imiquimod (IMQ)-induced acute model of psoriasis in mouse: skin thickness, erythema, scaling; type: in vivo, mouse (Balb/c)
# Description: Material and methods for the IMQ study were adapted from van der Fits et al. J Immunol., 2009, 182: 5836-5845. Eight week old male Balb/c mice (Harlan) received a daily topical dose of 62.5 mg 5% IMQ cream (Aldara™, Medicis) equivalent to 3.125 mg IMQ, on the shaved back (approximately 2×3.5 cm patch) and dorsal surface of the right ear for 6 consecutive days. Sham control mice were treated similarly with control cream (Hydrous Emulsified Base, HEB, Cream, Fagron). Treatments were administered by group as indicated in Table 1 below prior to daily application of IMQ (QD and morning dose of BID regimens), n=10 for all groups. […] Body weights and scoring of induced clinical disease were performed after dosing (Days 1-7) but prior to IMQ application (Days 1-6) on Days 1 (baseline), 3, 4, 6, 8. Mice were sacrificed on Day 8 and treated back skin tissue collected and divided for fixation for histopathology (a 12 mm punch in mid-back) the remainder flash frozen; right (IMQ) and left (control) ears, spleen (after wet weight) and lung were also individually collected and flash frozen, and stored at −70° C. for subsequent biochemical analyses. Statistics were performed using one-way ANOVA with Dunnett's post-hoc test comparing treated groups to the vehicle group, using InStat software (GraphPad, La Jolla, Calif.).
# The severity of clinical disease was assessed by
# 1) skin thickness dial gauge micrometer measurements (duplicate) of the ears and the dorsal skin at the midline of the back (equal to double true measure of dorsal skin thickness)
# 2) erythema and scaling, independently scored on a scale from 0-4: 0=none, 1=slight, 2=moderate, 3=marked, 4=very marked with intermediate increments of 0.5 allowed.
# Clinical disease assessments included erythema, scaling, skin thickness and cumulative disease severity scores and the change in skin thickness of the ears and dorsal back skin over time compared to baseline measurements (Tables 19 and 20). Body weights of the mice were measured at baseline and at end of study, and there were no significant changes in weight in any treatment group during the study (data not shown).
smiles,measurement,setting,value
CCOc1cc(C(=O)N2CCCN(C)CC2)ccc1Nc1cc2c(cn1)N(C)C(=O)c1ccccc1N2C [Compound 8],% Reduction Weight Increase Vs. Vehicle 1 Weight Increase,"[1]; 25 mg/kg PO, BID on Day 5 (elicitation)",−9.4%
same,% Reduction Weight Increase Vs. Vehicle 1 Weight Increase,"[1]; 60 mg/kg PO, BID Days 0-5 (from sensitization)",−38.5%
same,% Reduction Weight Increase Vs. Vehicle 1 Weight Increase,"[1]; 60 mg/kg PO, BID on Day 5 (elicitation)",−22.6%
same,"Clinical Score Erythema (0-4), AVG Score","[2]; Day 1 (baseline), 60 mpk BID",0
same,"Clinical Score Scaling (0-4), AVG Score","[2]; Day 1 (baseline), 60 mpk BID",0
same,"% Mean DORSAL BACK THICKNESS versus day 1, AVG","[2]; Day 3, 60 mpk BID",33.49%
same,"% Mean LEFT EAR THICKNESS [Control] versus day 1, AVG","[2]; Day 3, 60 mpk BID",−5.16%
same,"% Mean RIGHT EAR THICKNESS [IMQ] versus day 1, AVG","[2]; Day 3, 60 mpk BID",0.09%
same,"Clinical Score Erythema (0-4), AVG Score","[2]; Day 3, 60 mpk BID",1.25
same,"Clinical Score Scaling (0-4), AVG Score","[2]; Day 3, 60 mpk BID",0.5
same,"% Mean DORSAL BACK THICKNESS versus day 1, AVG","[2]; Day 4, 60 mpk BID",43.51%
same,"% Mean LEFT EAR THICKNESS [Control] versus day 1, AVG","[2]; Day 4, 60 mpk BID",−6.51%
same,"% Mean RIGHT EAR THICKNESS [IMQ] versus day 1, AVG","[2]; Day 4, 60 mpk BID",5.74%
same,"Clinical Score Erythema (0-4), AVG Score","[2]; Day 4, 60 mpk BID",1.4
same,"Clinical Score Scaling (0-4), AVG Score","[2]; Day 4, 60 mpk BID",0.6
same,"% Mean DORSAL BACK THICKNESS versus day 1, AVG","[2]; Day 6, 60 mpk BID",74.47** %
same,"% Mean LEFT EAR THICKNESS [Control] versus day 1, AVG","[2]; Day 6, 60 mpk BID",1.15%
same,"% Mean RIGHT EAR THICKNESS [IMQ] versus day 1, AVG","[2]; Day 6, 60 mpk BID",36.67* %
same,"Clinical Score Erythema (0-4), AVG Score","[2]; Day 6, 60 mpk BID",2.15
same,"Clinical Score Scaling (0-4), AVG Score","[2]; Day 6, 60 mpk BID",2.8
same,"% Mean DORSAL BACK THICKNESS versus day 1, AVG","[2]; Day 8, 60 mpk BID",32.42^NS %
same,"% Mean LEFT EAR THICKNESS [Control] versus day 1, AVG","[2]; Day 8, 60 mpk BID",−2.25%
same,"% Mean RIGHT EAR THICKNESS [IMQ] versus day 1, AVG","[2]; Day 8, 60 mpk BID",33.58** %
same,"Clinical Score Erythema (0-4), AVG Score","[2]; Day 8, 60 mpk BID",1.95
same,"Clinical Score Scaling (0-4), AVG Score","[2]; Day 8, 60 mpk BID",1.7
